What was measured:
Type in all cases: cell-based
SMARCA2 [1] = target: T1, SMARCA2 (Homo sapiens, UniProt P51531); experiment: SMARCA2 Western blot degradation in MV4-11 cells; design: SMARCA2/SMARCA4 protein degradation selectivity in MV4-11 cells; endogenous in cells; host or cells: MV4-11; conditions: for Dmax: MV4-11, MV4-11 cells, read-out: SMARCA2 MSD MV411 degradation 24 h: average Dmax %; for Dmax / DC50 / SMARCA2 MSD MV411 degradation 24 h: average Dmax %: 24 h; for DC50 / Selectivity in MV411 / SMARCA2 MSD MV411 degradation 24 h: average Dmax %: MV4-11 cells; for DC50: read-out: SMARCA2 MSD MV411 degradation 24 h: Mean external-Abs DC50; for Selectivity in MV411: SMARCA2/4 selectivity
T1 sequence (P51531 whole entry): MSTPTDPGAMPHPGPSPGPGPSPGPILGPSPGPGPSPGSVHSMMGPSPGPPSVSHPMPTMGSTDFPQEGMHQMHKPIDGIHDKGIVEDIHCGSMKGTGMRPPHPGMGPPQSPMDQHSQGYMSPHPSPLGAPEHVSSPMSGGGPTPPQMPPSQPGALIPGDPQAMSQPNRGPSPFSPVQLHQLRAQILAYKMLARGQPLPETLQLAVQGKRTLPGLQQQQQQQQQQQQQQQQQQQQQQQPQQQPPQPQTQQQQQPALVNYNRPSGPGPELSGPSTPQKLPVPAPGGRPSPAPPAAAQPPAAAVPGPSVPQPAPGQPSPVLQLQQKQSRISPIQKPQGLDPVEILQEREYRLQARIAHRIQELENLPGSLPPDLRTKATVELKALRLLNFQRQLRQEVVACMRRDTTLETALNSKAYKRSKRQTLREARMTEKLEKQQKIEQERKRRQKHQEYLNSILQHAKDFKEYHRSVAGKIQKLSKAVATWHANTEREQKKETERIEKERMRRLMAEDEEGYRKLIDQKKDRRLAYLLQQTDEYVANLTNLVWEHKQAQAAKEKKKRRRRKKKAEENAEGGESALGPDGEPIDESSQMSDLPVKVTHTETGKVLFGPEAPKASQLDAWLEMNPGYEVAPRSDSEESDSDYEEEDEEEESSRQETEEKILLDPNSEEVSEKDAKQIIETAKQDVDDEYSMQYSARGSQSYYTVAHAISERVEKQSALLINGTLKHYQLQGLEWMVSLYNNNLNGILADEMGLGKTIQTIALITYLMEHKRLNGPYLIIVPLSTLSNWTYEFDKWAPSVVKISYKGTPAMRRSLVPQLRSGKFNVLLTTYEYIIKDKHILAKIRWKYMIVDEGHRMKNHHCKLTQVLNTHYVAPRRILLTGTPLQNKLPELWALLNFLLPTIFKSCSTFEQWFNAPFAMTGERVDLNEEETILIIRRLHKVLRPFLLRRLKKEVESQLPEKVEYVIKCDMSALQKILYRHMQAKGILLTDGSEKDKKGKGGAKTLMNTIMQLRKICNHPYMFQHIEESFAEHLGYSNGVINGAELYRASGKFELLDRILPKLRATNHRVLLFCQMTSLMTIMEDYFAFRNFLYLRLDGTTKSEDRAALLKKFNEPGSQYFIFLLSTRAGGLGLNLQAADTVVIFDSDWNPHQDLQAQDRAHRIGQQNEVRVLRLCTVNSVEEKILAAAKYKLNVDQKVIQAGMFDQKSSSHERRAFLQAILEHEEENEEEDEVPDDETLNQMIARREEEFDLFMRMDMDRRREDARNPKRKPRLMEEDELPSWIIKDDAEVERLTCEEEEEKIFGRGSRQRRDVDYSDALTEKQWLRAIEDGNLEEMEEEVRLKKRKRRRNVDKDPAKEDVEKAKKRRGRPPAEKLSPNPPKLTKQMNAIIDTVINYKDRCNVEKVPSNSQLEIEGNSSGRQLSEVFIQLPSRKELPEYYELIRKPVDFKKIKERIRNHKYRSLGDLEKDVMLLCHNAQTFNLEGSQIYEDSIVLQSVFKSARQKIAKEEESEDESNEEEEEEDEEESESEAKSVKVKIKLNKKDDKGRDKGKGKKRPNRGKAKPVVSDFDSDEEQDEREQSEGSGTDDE

SMARCA2 [2] = target: T1, SMARCA2; experiment: MSD SMARCA2 degradation in A549 cell line; conditions: for Dmax: A549, A549 cells; for Dmax / DC50: 24 h; for DC50 / SMARCA2 MSD A549 degradation 24 h: Average Dmax %: A549 cells; for DC50: read-out: SMARCA2 MSD A549 degradation 24 h: Average external-Abs DC50
Procedure, shortened: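 SMARCA2 protein remaining after 24 h exposure of A549 cells (top concentration 1000 nM, 3-fold dilutions) was measured by MSD electrochemiluminescence immunoassay of cell lysates. Results are given as binned DC50 and maximal degradation (Dmax) codes.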

SMARCA4 = target: T2, SMARCA4 (Homo sapiens, UniProt P51532); experiment: SMARCA4 Western blot degradation in MV4-11 cells; conditions: for Dmax: MV4-11, MV4-11 cells, read-out: SMARCA4 MSD MV411 degradation 24 h: average Dmax %; for Dmax / DC50: 24 h; for DC50 / SMARCA4 MSD MV411 degradation 24 h: average Dmax %: MV4-11 cells; for DC50: read-out: SMARCA4 MSD MV411 degradation 24 h: Mean external-Abs DC50
T2 construct: SMARCA2/SMARCA4 protein degradation selectivity in MV4-11 cells; endogenous in cells; host or cells: MV4-11
T2 sequence (P51532 whole entry): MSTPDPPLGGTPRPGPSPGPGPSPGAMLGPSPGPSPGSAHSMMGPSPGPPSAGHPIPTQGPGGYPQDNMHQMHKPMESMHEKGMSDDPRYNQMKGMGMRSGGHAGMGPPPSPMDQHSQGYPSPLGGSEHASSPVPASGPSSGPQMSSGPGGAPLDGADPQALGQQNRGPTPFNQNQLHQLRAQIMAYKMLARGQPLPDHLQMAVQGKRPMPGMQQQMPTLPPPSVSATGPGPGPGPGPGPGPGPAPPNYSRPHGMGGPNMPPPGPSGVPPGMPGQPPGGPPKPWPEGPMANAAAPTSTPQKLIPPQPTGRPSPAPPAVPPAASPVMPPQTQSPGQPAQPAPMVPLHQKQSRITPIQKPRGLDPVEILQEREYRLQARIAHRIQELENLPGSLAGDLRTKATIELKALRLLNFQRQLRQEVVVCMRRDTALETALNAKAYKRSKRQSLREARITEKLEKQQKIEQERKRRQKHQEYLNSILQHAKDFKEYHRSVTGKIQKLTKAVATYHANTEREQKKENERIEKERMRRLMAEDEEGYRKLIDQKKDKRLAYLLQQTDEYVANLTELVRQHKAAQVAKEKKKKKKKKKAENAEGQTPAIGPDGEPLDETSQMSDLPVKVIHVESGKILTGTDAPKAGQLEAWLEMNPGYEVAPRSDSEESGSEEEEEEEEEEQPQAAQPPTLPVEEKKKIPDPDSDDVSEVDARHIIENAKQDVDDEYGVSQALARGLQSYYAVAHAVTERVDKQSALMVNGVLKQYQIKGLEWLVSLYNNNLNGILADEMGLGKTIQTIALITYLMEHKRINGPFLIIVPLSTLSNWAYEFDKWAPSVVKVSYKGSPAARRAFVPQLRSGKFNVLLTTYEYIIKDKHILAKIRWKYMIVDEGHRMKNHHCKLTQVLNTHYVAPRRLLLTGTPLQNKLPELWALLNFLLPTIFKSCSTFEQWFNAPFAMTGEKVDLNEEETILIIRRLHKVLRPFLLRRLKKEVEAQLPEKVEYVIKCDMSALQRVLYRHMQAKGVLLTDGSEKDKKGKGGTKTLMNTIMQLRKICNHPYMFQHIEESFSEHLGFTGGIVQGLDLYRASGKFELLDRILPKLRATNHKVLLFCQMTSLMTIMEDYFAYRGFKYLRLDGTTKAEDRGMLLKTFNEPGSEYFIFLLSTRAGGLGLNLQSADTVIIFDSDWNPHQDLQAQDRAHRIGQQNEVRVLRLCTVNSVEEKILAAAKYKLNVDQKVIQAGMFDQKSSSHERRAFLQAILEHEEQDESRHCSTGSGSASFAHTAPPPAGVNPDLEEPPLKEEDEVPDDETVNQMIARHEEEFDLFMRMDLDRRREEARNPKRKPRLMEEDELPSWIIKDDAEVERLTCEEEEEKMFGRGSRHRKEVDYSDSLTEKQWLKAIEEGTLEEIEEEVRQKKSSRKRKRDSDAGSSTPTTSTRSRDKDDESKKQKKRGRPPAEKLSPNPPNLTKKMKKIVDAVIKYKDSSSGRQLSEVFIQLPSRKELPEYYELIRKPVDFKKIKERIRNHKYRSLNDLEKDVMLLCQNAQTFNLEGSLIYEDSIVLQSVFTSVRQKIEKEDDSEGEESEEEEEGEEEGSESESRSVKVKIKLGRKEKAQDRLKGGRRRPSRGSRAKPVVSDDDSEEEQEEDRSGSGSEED
Procedure, shortened: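 Protein levels quantified by LI-COR Western blot (beta-actin loading control) in RIPA lysates of MV4-11 cells after 24 h compound exposure. Degradation reported as DC50, Dmax % at 24 h and SMARCA2 vs SMARCA4 selectivity, each binned into letter codes.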

Dmax (SMARCA2 [1])	DC50 (SMARCA2 [1])	Selectivity in MV411 (SMARCA2 [1])	Dmax (SMARCA2 [2])	DC50 (SMARCA2 [2])	Dmax (SMARCA4)	DC50 (SMARCA4)	SMARCA2 MSD MV411 degradation 24 h: average Dmax % (SMARCA2 [1])	SMARCA2 MSD A549 degradation 24 h: Average Dmax % (SMARCA2 [2])	SMARCA4 MSD MV411 degradation 24 h: average Dmax % (SMARCA4)	SMILES
< 50%	> 100 nM	C (C (10-100 fold))	< 50%	> 100 nM	< 50%	> 100 nM	–	–	–	C#Cc1ccc(CNC(=O)[C@@H]2C[C@@H](O)CN2C(=O)[C@@H](NC(=O)N2CC3(CC(N4CCC(c5cnc(N6CCc7[nH]c8nnc(-c9ccccc9O)cc8c7[C@H]6C)nc5)CC4)C3)C2)C(C)(C)CCN2CCN[C@H](C(=O)O)C2)cc1 [I-344]
> 90%	1 to 10 nM	C (C (10-100 fold))	> 90%	< 10 nM	70 to 90%	> 100 nM	–	–	–	C#Cc1ccc([C@H](C)NC(=O)[C@@H]2C[C@@H](O)CN2C(=O)[C@@H](NC(=O)N2CC3(CC(N4CCN(c5cnc(N6CCc7[nH]c8nnc(-c9ccccc9O)cc8c7[C@H]6C)nc5)CC4)C3)C2)C(C)(C)CCO)cc1 [I-369]
–	1 to 10 nM	C (C (10-100 fold))	–	10 to 50 nM	–	10 to 100 nM	A (A (>90% degradation))	A (A (>90% degradation))	B (B (>70-90% degradation))	C#Cc1ccc(CNC(=O)[C@@H]2C[C@@H](O)CN2C(=O)[C@@H](NC(=O)[C@H]2CC3(C2)C[C@H](N2CCC(N4CCC(N5CCN6c7cc(-c8ccccc8O)nnc7NC[C@H]6C5)CC4)CC2)C3)C(C)(C)C)c(OC)c1 (single isomer, unassigned) [I-232]
70 to 90%	1 to 10 nM	A (A (>500 fold))	> 90%	50 to 100 nM	< 50%	> 100 nM	–	–	–	C#Cc1ccc(CNC(=O)[C@@H]2C[C@@H](O)CN2C(=O)[C@@H](NC(=O)C2CC3(C2)CC(N2CCC(N4CCC(N5CCN6c7cc(-c8ccccc8O)nnc7NC[C@H]6C5)CC4)CC2)C3)C(C)(C)C)cc1 (stereo partly shown) [I-137]
70 to 90%	10 to 100 nM	D (D (<10 fold))	> 90%	> 100 nM	> 90%	> 100 nM	–	–	–	C#Cc1ccc(CNC(=O)[C@@H]2C[C@@H](O)CN2C(=O)[C@@H](NC(=O)N2CC3(CC(N4CCC(N5CCC(N6CCc7[nH]c8nnc(-c9ccccc9O)cc8c7[C@@H]6C)CC5)CC4)C3)C2)C(C)(C)C)cc1 [I-180]
> 90%	< 1 nM	C (C (10-100 fold))	> 90%	10 to 50 nM	70 to 90%	10 to 100 nM	–	–	–	C#Cc1ccc([C@H](C)NC(=O)[C@@H]2C[C@@H](O)CN2C(=O)[C@H](c2cc(OCCN3CCC(N4CCC(N5CCC(CN6CCN7c8cc(-c9ccccc9O)nnc8NC[C@H]7C6)CC5)CC4)CC3)no2)C(C)C)cc1 (single isomer, unassigned) [I-333]
70 to 90%	10 to 100 nM	B (B (>100-500 fold))	70 to 90%	> 100 nM	< 50%	> 100 nM	–	–	–	C#Cc1ccc(CNC(=O)[C@@H]2C[C@@H](O)CN2C(=O)[C@@H](NC(=O)N2CCN(C[C@H]3CC[C@@H](N4CCC(N5CCN6c7cc(-c8ccccc8O)nnc7NC[C@H]6C5)CC4)CC3)CC2)C(C)(C)C)cc1 [I-255]
> 90%	1 to 10 nM	C (C (10-100 fold))	> 90%	10 to 50 nM	> 90%	10 to 100 nM	–	–	–	C#Cc1ccc([C@H](C)NC(=O)[C@@H]2C[C@@H](O)CN2C(=O)C(c2cc(N3CCC(N4CCC(N5CCC(CN6CCN7c8cc(-c9ccccc9O)nnc8NC[C@H]7C6)CC5)CC4)CC3)no2)C(C)C)cc1 (stereo partly shown) [I-291]
50 to 70%	10 to 100 nM	C (C (10-100 fold))	70 to 90%	50 to 100 nM	< 50%	> 100 nM	–	–	–	Cc1ncsc1-c1ccc(CNC(=O)[C@@H]2C[C@@H](O)CN2C(=O)[C@@H](NC(=O)[C@H]2CC3(C2)C[C@H](N2CCC(N4CCC(c5ccc6[nH]c7nnc(-c8ccccc8O)cc7c6c5)CC4)CC2)C3)C(C)(C)C)cc1 (single isomer, unassigned) [I-28]
70 to 90%	10 to 100 nM	C (C (10-100 fold))	> 90%	> 100 nM	50 to 70%	> 100 nM	–	–	–	C#Cc1ccc(CNC(=O)[C@@H]2C[C@@H](O)CN2C(=O)[C@@H](NC(=O)[C@H]2CCC3(CC2)C[C@H](N2CCC(N(C)CCN4CCN5c6cc(-c7ccccc7O)nnc6NC[C@H]5C4)CC2)C3)C(C)(C)C)cc1 (single isomer, unassigned) [I-246]
> 90%	1 to 10 nM	D (D (<10 fold))	> 90%	< 10 nM	> 90%	10 to 100 nM	–	–	–	C#Cc1ccc(CNC(=O)[C@@H]2C[C@@H](O)CN2C(=O)[C@@H](NC(=O)N2CC3(CC(N4CCC(c5cnc(N6CCc7[nH]c8nnc(-c9ccccc9O)cc8c7[C@H]6C)nc5)CC4)C3)C2)C(C)(C)C)c(OCCCOC)c1 [I-128]
70 to 90%	10 to 100 nM	B (B (>100-500 fold))	> 90%	10 to 50 nM	50 to 70%	> 100 nM	–	–	–	C#Cc1ccc(CNC(=O)[C@@H]2C[C@@H](O)CN2C(=O)[C@@H](NC(=O)N2CC3(CC(N4CCC(c5cnc(N6CCc7[nH]c8nnc(-c9ccccc9O)cc8c7[C@H]6C)nc5)CC4)C3)C2)C(C)(C)C)c(F)c1 [I-120]
70 to 90%	1 to 10 nM	C (C (10-100 fold))	> 90%	10 to 50 nM	50 to 70%	> 100 nM	–	–	–	Cc1ncsc1-c1ccc(CNC(=O)[C@@H]2C[C@@H](O)CN2C(=O)[C@@H](NC(=O)[C@H]2CC3(C2)C[C@H](N2CCN(c4cnc(N5CCc6[nH]c7nnc(-c8ccccc8O)cc7c6[C@H]5C)nc4)CC2)C3)C(C)(C)C)cc1 (single isomer, unassigned) [I-76]
> 90%	< 1 nM	D (D (<10 fold))	> 90%	< 10 nM	> 90%	< 1 nM	–	–	–	C#CCOc1cc(C(C(=O)N2C[C@H](O)C[C@H]2C(=O)NCc2ccc(-c3scnc3C)cc2O[C@H]2CC[C@@H](N3CCC(c4cnc(N5CCc6[nH]c7nnc(-c8ccccc8O)cc7c6[C@H]5C)nc4)CC3)CC2)C(C)C)on1 (single isomer, unassigned) [I-37]
50 to 70%	1 to 10 nM	C (C (10-100 fold))	> 90%	50 to 100 nM	70 to 90%	> 100 nM	–	–	–	CC#Cc1ccc(CNC(=O)[C@@H]2C[C@@H](O)CN2C(=O)[C@@H](NC(=O)[C@H]2CCC3(CC2)C[C@H](N2CCC(c4cnc(N5CCN6c7cc(-c8ccccc8O)nnc7NC[C@H]6C5)nc4)CC2)C3)C(C)(C)C)cc1 (single isomer, unassigned) [I-103]
< 50%	> 100 nM	C (C (10-100 fold))	70 to 90%	> 100 nM	< 50%	> 100 nM	–	–	–	C#Cc1ccc(CNC(=O)[C@@H]2C[C@@H](O)CN2C(=O)[C@@H](NC(=O)N2CCN(CC3CCN([C@H]4CC[C@@H](N5CCc6[nH]c7nnc(-c8ccccc8O)cc7c6[C@H]5C)CC4)CC3)CC2)C(C)(C)C)cc1 [I-203]
< 50%	> 100 nM	D (D (<10 fold))	50 to 70%	> 100 nM	< 50%	> 100 nM	–	–	–	C#Cc1cnc(CNC(=O)[C@@H]2C[C@@H](O)CN2C(=O)[C@@H](NC(=O)[C@H]2CCC3(CC2)C[C@H](N2CCC(c4cnc(N5CCN6c7cc(-c8ccccc8O)nnc7NC[C@H]6C5)nc4)CC2)C3)C(C)(C)C)c(OC)c1 (single isomer, unassigned) [I-286]
–	10 to 100 nM	B (B (>100-500 fold))	–	> 100 nM	–	> 100 nM	B (B (>70-90% degradation))	A (A (>90% degradation))	D (D (<50% degradation))	C#Cc1ccc([C@H](C)NC(=O)[C@@H]2C[C@@H](O)CN2C(=O)[C@@H](NC(=O)[C@H]2CC3(C2)C[C@H](N2CCC(N4CCC(N5CCN6c7cc(-c8ccccc8O)nnc7NC[C@H]6C5)CC4)CC2)C3)C(C)(C)C)cc1 (single isomer, unassigned) [I-226]
< 50%	> 100 nM	C (C (10-100 fold))	< 50%	> 100 nM	< 50%	> 100 nM	–	–	–	C#Cc1ccc(CNC(=O)[C@@H]2C[C@@H](O)CN2C(=O)[C@@H](NC(=O)N2CC3(CC(N4CCC(c5cnc(N6CCc7[nH]c8nnc(-c9ccccc9O)cc8c7[C@H]6C)nc5)CC4)C3)C2)C(C)(C)CCN2CCOCC2)cc1 (single isomer, unassigned) [I-338]
